From BindingDB's records for doi:10.1021/jm021073r (University of Bath, 2003)

target: Kappa-type opioid receptor (Homo sapiens, UniProt P41145); assay: Stimulation of U-69,593 binding at human recombinant Opioid receptor kappa 1 transfected into CHO cells.
Sequence (P41145 whole entry): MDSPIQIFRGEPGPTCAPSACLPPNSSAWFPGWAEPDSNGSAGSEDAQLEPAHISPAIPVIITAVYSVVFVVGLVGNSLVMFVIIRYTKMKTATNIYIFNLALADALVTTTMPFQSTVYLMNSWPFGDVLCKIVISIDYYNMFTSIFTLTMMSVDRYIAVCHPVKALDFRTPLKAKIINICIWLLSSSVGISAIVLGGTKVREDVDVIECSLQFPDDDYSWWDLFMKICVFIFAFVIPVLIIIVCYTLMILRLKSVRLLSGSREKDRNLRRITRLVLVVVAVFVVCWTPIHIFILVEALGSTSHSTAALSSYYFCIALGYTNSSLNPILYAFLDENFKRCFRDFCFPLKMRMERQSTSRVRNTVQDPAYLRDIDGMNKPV

Row | SMILES | EC50 [nM]
1 | CN1CC[C@]23c4c5ccc(O)c4O[C@H]2c2[nH]c4ccccc4c2C[C@@]3(NC(=O)CCc2ccccc2)C1C5 | 9.5
2 | CCCCCCC(=O)N[C@@]12Cc3c([nH]c4ccccc34)[C@@H]3Oc4c(O)ccc5c4[C@@]31CCN(C)C2C5 | 57
3 | CCN[C@@]12Cc3c([nH]c4ccccc34)[C@@H]3Oc4c(O)ccc5c4[C@@]31CCN(C)C2C5 | 98
4 | CN1CC[C@]23c4c5ccc(O)c4O[C@H]2c2[nH]c4ccccc4c2C[C@@]3(N)C1C5 | 87
